Earlier results in article PMC11286589, “Population pharmacokinetics and exposure–response analyses of SAF-189s in Chinese patients with ALK+/ROS1+ non-small cell lung cancer” (Frontiers in Pharmacology, 2024).

Conditions: cited from earlier work

Compound	incidence rate of hyperglycemia (FIH trial, ref Khozin et al., 2015) [%]	effect on glucose tolerance in patients (current clinical use, ref Camidge et al., 2018, Seto et al., 2019, Wolf et al., 2022)
Cc1cc(Nc2ncc(Cl)c(Nc3ccccc3S(=O)(=O)C(C)C)n2)c(OC(C)C)cc1C1CCNCC1 [ceritinib]	49	–
C[C@@H](Oc1cc(-c2cnn(C3CCNCC3)c2)cnc1N)c1c(Cl)ccc(F)c1Cl [crizotinib]	–	no effects on glucose tolerance
